“And” between values parts separate entries of the source, which are not always exact repeats. Equal entries are not always repeated.

We go through 1 compound from paper PMC4501119, “Cholestenoic acid, an endogenous cholesterol metabolite, is a potent γ-secretase modulator” (Molecular Neurodegeneration, 2015).

Details of series [1]: method as in PMID 10428977. The note with it: in humans; cited from earlier work.
Series [2] relates to primary mouse motor neuron. On the set-up: method as in PMID 25271621. The settings on record: cited from earlier work.
Series [3] in a line: Plasma CA concentration after IP injection (HPLC-MS-MS). The class given is in vivo, mouse (C57BL/6). The note with it: mice. As to the method: 25(R)-CA powder was initially dissolved in DMSO (<4.5 % in the final mixture) and then combined with polyethylene glycol (15)-hydroxystearate (Solutol), ethanol, and water at a ratio of (15:10:75). One molar equivalent of sodium hydroxide was added to the mixture. We performed CA intraperitoneal (IP) injections to wild-type mice (C57BL/6 or CF-1). The mice were injected with 25(R)-CA on the right side of the abdomen. The injections have been performed with various time points (30 min, 1 h, 2 h, and 3 h) and with multiple doses (30 mg per kg (mg/kg), 60 mg/kg, 75 mg/kg and 100 mg/kg). The number of each cohort is 6–8. We used 30 mg/kg of CA for the time-course experiments, and for the dose–response experiments the end-point was set at 30 min. The brains and serum are harvested and frozen for brain Aβ extraction.
The plasma samples were extracted using published solid phase extraction method (72) and analyzed by HPLC-MS-MS. Briefly, 0.1 ml mouse plasma samples after adding 20 μl of D3-CA as internal standard were preconditioned with 1.4 ml of ethanol (99.9 %), and 0.5 ml of water, centrifuged at 4 °C, 4000 rpm for 10 min. This solution was then loaded onto a Sep-Pak tC18 (SPE1) solid phase extraction cartridge which were preconditioned with 70 % ethanol. […]

In series [4] the test system is Aβ42 in CHO-2B7 cells (CHO cells stably overexpressing APP695). Nature of the series: Cell-based Aβ sandwich ELISA of conditioned media from CHO-2B7 cells treated 16 h. Also on record: species or system Chinese hamster. As to the method:
Chinese hamster ovary (CHO) cells stably overexpressing APP695 (CHO-2B7 cells) were grown in Ham’s F-12 medium (Life Technologies) supplemented with 10 % fetal bovine serum and 100 units/ml of penicillin and 100 μg/ml streptomycin. Cells were grown at 37 °C in a humidified atmosphere containing 5 % CO2 in tissue culture plates (Costar). The cells were harvested at confluence and then utilized for biochemical analyses. Compounds were dissolved in dimethyl sulfoxide (DMSO) and screened in CHO-2B7 cells. The cells were incubated for 16 h in the presence of the compound diluted into OptiMEM-reduced serum medium (Life Technologies, Carlsbad, CA, USA) containing 1 % fetal bovine serum.
Monoclonal antibodies to Aβ were generated by the Mayo Clinic Immunology Core facilities (Jacksonville, FL, USA). Ab5 recognizes an epitope in the amino terminus of Aβ (Aβ1-16), recognizes both monomeric and aggregated Aβ, and is human specific. […] Ab 2.1.3 was raised against Aβ35-42 and is specific for Aβx-42. […] Total Aβ level was determined by capture with Ab5 and detected with horseradish peroxidase (HRP)-conjugated 4G8 (a monoclonal antibody against Aβ17-24; Covance, Waltham, MA, USA) with the other Aβ peptides detected with HRP-conjugated Ab5. For the cell-free assay and measuring mouse endogenous Aβ, HRP-conjugated 4G8 was used as the secondary detection antibody. Aβ standards (Bachem, King of Prussia, PA, USA) were prepared by dissolving in hexafluoroisopropanol (HFIP) at 1 mg/ml with sonication, dried under nitrogen, resuspended at 2 mg/ml HFIP, sonicated again and dried under nitrogen. The resulting Aβ was resuspended in 0.01 % ammonium hydroxide, portioned into aliquots in EC buffer, and frozen at −80 °C.

[5] abbreviates: CHO-2B7 cells, dose response, ELISA.

Broadly, the EC50 is the concentration giving half of the maximal effect. Read a low EC50 as greater potency. For orientation: EC90 means the concentration needed for an effect of 90%. A higher EC90 goes with weaker potency. With `CC(CCC[C@@H](C)C(=O)O)[C@H]1CCC2C3CC=C4C[C@@H](O)CC[C@]4(C)C3CC[C@@]21C` (stereo partly drawn) [Cmpd 2a, 25(R)-cholestenoic acid], the “half-life (T1/2)” value in series [1] is 1.5 h. In addition, the “toxicity to primary mouse motor neuron in cultures” value in series [2] is “toxic”. Also, the “plasma CA concentration” value in series [3] (30 mg/kg IP, listed as CA) is 200 ng/mL and ~ 500 nM. In addition, the concentration at 30 min in series [3] (C57BL/6, mouse, plasma, intraperitoneal, 100 mg/kg IP) was 4000 ng/mL and ~10 µM. Besides, in series [4] (setting [5]), the Aβ38 level result is “increased” and the “total Aβ level” value was “without alterations”. Moreover, the EC50 in series [4] (Cricetulus griseus, CHO-2B7, 16 h, lowering Aβ42, CHO-2B7 cells, 16 h, ELISA) was roughly 250 nM. Besides, in series [4] (Cricetulus griseus, decreasing Aβ42, CHO-2B7 cells), the 90% effect level (EC90) was put at 3000 nM.
